In patent US10906910B2, “Substituted bicyclic pyrimidine compounds with tubulin and multiple receptor inhibition” (Duquesne University of the Holy Spirit, priority 2014, dated 2021):
Counter-ions that a name gives are not always drawn.

Key:
wild type HeLa cells = test: HeLa cytotoxicity, wild type; type: cell-based; details: Homo sapiens
PDGFRβ = PDGFRβ (Homo sapiens, UniProt P09619); test: PDGFRβ kinase inhibition, whole-cell assay; type: cell-based; details: for IC50: whole-cell assay, read-out: kinase inhibition IC50 [whole-cell assays] PDGFRβ
Chain of PDGFRβ (P09619 33-1106, species assumed): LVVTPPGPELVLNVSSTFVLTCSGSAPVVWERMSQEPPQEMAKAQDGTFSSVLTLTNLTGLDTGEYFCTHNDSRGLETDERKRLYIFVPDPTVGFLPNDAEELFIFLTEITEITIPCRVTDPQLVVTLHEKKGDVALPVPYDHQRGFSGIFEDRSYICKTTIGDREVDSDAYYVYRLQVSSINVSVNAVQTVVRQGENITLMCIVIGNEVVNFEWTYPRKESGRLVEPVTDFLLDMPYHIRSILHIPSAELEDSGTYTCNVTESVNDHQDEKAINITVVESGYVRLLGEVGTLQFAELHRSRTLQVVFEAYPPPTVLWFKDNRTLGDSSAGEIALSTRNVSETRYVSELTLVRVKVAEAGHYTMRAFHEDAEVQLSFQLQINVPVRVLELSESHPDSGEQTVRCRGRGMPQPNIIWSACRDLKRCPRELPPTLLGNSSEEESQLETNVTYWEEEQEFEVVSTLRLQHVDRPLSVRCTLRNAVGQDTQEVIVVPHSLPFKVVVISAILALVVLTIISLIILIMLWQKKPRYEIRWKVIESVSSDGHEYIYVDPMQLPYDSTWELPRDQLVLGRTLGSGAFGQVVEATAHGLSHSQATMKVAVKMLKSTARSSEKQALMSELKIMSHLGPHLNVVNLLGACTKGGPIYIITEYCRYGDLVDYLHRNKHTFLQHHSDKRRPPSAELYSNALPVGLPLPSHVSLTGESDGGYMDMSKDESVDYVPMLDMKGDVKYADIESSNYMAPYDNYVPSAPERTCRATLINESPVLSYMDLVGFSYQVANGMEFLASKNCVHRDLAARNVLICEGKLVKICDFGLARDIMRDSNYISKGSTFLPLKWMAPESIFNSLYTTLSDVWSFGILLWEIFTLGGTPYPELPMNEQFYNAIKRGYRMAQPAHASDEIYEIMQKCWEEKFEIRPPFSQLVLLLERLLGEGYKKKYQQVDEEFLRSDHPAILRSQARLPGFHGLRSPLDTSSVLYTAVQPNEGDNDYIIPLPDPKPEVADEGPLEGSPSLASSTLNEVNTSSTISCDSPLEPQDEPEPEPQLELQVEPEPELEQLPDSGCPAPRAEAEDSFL

VEGFR2 = VEGFR2 (Homo sapiens, UniProt P35968); test: VEGFR2 kinase inhibition, whole-cell assay; type: cell-based; details: read-out: kinase inhibition IC50 [whole-cell assays] VEGFR2
Chain of VEGFR2 (P35968 20-1356, species assumed): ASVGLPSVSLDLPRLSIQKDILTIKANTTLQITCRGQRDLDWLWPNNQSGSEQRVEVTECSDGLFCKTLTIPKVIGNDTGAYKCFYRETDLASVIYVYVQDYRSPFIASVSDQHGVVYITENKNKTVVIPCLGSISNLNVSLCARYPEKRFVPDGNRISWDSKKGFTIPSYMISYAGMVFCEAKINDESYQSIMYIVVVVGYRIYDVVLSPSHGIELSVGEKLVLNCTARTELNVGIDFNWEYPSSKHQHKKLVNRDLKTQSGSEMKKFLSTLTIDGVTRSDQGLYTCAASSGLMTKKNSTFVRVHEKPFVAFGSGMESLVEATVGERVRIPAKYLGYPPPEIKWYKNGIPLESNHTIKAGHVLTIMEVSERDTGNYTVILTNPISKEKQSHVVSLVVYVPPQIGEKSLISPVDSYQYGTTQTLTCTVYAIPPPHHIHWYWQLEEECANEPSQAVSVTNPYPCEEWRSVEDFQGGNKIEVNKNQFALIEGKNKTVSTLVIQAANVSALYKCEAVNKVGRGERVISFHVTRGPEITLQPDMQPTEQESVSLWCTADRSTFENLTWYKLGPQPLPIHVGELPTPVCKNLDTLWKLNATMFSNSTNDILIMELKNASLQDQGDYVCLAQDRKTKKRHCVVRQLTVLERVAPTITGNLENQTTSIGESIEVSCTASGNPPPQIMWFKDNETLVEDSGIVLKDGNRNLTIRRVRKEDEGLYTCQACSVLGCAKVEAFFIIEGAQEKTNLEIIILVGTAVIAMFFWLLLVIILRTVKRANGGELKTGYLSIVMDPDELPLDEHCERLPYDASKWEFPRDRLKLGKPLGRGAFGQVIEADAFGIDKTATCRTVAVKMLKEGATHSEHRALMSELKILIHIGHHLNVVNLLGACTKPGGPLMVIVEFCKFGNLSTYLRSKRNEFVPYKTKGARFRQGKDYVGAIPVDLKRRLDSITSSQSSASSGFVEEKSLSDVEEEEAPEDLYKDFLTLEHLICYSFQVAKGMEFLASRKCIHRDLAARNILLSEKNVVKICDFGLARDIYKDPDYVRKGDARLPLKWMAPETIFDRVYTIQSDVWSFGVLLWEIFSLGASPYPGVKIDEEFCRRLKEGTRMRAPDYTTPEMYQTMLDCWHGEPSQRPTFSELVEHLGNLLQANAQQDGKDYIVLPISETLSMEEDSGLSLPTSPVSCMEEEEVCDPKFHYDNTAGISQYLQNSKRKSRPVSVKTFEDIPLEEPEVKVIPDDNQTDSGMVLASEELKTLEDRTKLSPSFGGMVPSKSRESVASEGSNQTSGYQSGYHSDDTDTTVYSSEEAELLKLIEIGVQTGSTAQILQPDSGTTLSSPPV

EGFR = EGFR (Homo sapiens, UniProt P00533); test: EGFR kinase inhibition, whole-cell assay; type: cell-based; details: read-out: kinase inhibition IC50 [whole-cell assays] EGFR
Chain of EGFR (P00533 25-1210, species assumed): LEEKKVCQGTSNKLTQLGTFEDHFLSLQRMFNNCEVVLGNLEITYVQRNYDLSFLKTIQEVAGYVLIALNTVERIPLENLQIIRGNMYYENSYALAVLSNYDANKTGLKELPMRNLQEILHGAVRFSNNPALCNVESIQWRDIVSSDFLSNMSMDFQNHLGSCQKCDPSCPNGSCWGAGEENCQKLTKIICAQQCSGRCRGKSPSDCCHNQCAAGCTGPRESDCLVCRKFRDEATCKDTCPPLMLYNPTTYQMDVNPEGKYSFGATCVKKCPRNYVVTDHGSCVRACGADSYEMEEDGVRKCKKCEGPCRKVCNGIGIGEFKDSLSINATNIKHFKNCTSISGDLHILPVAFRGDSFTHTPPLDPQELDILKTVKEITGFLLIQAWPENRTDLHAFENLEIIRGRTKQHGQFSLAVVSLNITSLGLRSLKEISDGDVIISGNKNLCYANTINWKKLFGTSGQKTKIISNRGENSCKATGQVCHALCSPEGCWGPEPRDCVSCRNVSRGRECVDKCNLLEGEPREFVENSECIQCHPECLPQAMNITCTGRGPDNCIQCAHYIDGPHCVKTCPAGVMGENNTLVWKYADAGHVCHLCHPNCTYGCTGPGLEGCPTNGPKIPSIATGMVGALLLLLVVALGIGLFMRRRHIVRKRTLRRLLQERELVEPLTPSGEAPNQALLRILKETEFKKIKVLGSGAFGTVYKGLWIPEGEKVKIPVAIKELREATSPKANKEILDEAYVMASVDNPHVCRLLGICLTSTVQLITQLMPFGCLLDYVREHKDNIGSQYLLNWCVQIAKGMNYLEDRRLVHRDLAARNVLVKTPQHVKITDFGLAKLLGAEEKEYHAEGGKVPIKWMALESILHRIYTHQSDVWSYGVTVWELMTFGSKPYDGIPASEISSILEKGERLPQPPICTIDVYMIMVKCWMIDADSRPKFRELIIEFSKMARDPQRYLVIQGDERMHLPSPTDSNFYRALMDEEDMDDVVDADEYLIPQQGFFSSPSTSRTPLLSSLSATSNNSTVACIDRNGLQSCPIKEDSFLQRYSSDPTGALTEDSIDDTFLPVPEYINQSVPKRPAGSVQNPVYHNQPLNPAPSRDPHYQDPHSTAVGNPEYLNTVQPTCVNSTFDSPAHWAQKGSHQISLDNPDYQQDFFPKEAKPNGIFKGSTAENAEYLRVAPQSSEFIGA

[1] = system: βIII-tubulin overexpressing HeLa cell line; test: HeLa cytotoxicity, βIII-tubulin overexpressing; type: cell-based; details: Homo sapiens; βIII-tubulin overexpressing HeLa
A431 cells = test: A431 cytotoxicity; type: cell-based; details: Homo sapiens, A-431
bovine brain tubulin = test: inhibition of tubulin assembly; type: biochemical; details: bovine tubulin

| IC50 (PDGFRβ) [nM] | IC50 (VEGFR2) [nM] | melting point [°C] | IC50 (EGFR) [nM] | potency against PDGFRβ, in words (PDGFRβ) | IC50 (bovine brain tubulin) [µM] | SMILES | IC50 (wild type HeLa cells) [nM] | IC50 [1] [µM] | IC50 (A431 cells) [nM] |
| --- | --- | --- | --- | --- | --- | --- | --- | --- | --- |
| 30.2 | 32.9 | 130 to 132 | 4.9 ± 0.6 | – | – | COc1ccc2c(c1)CCCN2c1nc(C)nc2c(Cc3ccccc3)cn(C)c12 [Compound 5, 1-(7-Benzyl-2,5-dimethyl-5H-pyrrolo[3,2-d]pyrimidin-4-yl)-6-methoxy-1,2,3,4-tetrahydroquinoline] | 60 | – | – |
| 7.2 ± 0.9 | 26.7 | – | 2.6 | potencies comparable with DMBI | > 20 | COc1ccc(Nc2nc(C)nc3c(Cc4ccccc4)cn(C)c23)cc1 [Compound 3, 7-Benzyl-N-(4-methoxyphenyl)-2,5-dimethyl-5H-pyrrolo[3,2-d]pyrimidin-4-amine] | 5000 | 5 | 2.3 ± 0.3 |
| – | – | 291 to 292 | – | – | – | COc1ccc(Nc2nc(C)nc3c(Cc4ccccc4)cn(C)c23)cc1 (as salt: salt) [Compound 3, 7-Benzyl-N-(4-methoxyphenyl)-2,5-dimethyl-5H-pyrrolo[3,2-d]pyrimidin-4-amine] | – | – | – |
